The target of test [1] is ROCK1 (Homo sapiens, UniProt Q13464). Nature of the test: Kinase inhibition assay (KINASE-GLO), ROCK1. It counts as biochemical. (In general: Kinase-Glo measures the ATP left after a reaction by luminescence.)
The target of test [2] is ROCK2 (Homo sapiens, UniProt O75116). The conditions noted are these: read-out: Ki (nM) ROCK2.

SMILES strings stand for the structures.

For orientation: Ki means a measure of affinity in units of concentration, obtained from inhibition or displacement.

Chain of ROCK2 (O75116 whole entry): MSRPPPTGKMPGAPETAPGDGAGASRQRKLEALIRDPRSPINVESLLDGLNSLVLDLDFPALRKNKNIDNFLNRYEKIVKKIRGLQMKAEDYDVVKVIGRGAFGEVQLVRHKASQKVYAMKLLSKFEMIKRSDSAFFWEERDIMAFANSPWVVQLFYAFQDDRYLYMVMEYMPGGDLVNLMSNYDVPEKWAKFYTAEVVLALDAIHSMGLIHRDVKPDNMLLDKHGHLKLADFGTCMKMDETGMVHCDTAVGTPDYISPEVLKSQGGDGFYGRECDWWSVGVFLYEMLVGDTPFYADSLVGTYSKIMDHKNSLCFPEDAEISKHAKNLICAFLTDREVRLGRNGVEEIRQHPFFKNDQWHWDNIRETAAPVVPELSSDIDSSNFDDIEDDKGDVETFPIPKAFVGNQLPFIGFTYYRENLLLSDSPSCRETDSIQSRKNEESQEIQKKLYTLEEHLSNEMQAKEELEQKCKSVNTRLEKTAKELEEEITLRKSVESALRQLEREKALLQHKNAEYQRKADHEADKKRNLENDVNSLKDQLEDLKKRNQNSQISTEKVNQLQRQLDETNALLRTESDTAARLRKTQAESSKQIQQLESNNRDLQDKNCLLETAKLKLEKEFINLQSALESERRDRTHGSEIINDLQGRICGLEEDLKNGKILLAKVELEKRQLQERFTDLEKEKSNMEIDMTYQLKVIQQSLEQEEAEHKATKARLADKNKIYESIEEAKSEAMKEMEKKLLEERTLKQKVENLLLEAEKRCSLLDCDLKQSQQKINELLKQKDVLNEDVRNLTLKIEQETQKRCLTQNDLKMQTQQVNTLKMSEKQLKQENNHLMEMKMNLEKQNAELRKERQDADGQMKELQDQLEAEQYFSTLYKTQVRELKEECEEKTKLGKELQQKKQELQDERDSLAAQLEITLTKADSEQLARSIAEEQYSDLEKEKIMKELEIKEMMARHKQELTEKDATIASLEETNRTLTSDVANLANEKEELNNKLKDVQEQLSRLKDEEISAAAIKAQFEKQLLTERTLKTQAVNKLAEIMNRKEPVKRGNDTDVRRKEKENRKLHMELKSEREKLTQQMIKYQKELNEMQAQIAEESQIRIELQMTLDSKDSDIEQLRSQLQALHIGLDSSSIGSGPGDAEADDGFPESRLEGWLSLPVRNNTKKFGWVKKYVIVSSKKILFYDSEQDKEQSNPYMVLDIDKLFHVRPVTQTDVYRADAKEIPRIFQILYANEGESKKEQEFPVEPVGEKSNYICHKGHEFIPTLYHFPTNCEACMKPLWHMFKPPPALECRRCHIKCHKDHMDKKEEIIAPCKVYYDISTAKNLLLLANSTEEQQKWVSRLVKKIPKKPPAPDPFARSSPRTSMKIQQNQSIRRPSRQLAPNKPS
Chain of ROCK1 (Q13464 whole entry): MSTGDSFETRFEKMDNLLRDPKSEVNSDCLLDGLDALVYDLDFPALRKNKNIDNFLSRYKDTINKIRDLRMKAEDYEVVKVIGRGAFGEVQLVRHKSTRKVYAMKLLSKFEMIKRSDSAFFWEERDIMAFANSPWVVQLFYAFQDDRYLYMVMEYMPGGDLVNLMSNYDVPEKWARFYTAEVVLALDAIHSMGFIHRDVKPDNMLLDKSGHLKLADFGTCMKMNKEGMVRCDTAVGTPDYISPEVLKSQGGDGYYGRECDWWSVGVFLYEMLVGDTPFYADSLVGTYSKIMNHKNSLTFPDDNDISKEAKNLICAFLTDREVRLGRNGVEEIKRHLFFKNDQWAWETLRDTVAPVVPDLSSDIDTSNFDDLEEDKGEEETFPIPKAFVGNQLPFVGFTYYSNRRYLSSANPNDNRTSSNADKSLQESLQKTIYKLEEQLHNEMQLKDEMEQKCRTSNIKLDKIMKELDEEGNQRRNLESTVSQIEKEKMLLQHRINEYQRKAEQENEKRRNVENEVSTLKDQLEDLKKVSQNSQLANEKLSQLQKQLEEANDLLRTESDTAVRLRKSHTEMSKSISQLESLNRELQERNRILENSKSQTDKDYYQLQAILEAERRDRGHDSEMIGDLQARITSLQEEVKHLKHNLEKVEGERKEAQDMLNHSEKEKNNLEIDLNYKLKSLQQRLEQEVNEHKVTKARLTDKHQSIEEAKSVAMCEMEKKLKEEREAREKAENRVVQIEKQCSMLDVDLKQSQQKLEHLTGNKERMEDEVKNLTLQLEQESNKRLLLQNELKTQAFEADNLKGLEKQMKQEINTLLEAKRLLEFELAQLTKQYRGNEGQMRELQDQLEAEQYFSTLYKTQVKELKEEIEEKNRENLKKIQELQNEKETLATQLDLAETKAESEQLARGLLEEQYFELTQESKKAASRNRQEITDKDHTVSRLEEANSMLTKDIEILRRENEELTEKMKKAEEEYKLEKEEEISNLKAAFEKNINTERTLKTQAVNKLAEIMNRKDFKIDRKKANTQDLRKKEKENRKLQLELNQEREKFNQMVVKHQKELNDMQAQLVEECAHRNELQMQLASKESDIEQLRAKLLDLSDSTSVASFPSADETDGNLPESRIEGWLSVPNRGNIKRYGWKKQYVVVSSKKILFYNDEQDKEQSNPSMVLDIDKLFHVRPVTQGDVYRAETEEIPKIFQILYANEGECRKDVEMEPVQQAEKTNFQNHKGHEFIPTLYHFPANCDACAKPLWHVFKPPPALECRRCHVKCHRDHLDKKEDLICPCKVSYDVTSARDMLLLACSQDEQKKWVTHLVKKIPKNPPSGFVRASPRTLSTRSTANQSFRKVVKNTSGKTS

Regarding `NC[C@@H](C(=O)Nc1ccc2cnccc2c1)c1ccc(CO)cc1`, the inhibitory constant (Ki) in test [1] and in test [2] was 0.2 nM in each case.

Values taken from patent US12692234B2, “Rock inhibitors and uses thereof” (Alcon Inc., priority 2024, dated 2026).
